From ChEMBL document CHEMBL6092189, “Synthesis of kanamycin-azole hybrids and investigation of their antifungal activities” (Bioorg Med Chem, 2024)
Values after ≈ are worked out from the molar mass of the structure shown. Active and inactive are the calls of the source. The calls are words filed in the database; no cut-off is given here.

How the values were obtained:
Candida tropicalis [1] = assay: Antifungal activity against Candida tropicalis 95-41 assessed as inhibition of fungal growth incubated for 48 hrs by two-fold dilution assay; assay type: functional
Cell membrane [2] = assay: Induction of membrane permeabilization in Candida rugosa 95-967 assessed as pore formation by measuring fluorescence intensity at 256 ug/ml measured after 25 mins by SYTOX Green dye based fluorescence analysis; assay type: subcellular; conditions: Diutina rugosa, dose 256.0 µg/ml
Staphylococcus aureus = assay: Antibacterial activity against Staphylococcus aureus ATCC 25923 assessed as inhibition of bacterial growth incubated for 18 hrs by two-fold dilution method; assay type: functional
Cell membrane [3] = assay: Induction of membrane permeabilization in Candida albicans 64124 assessed as pore formation by measuring increase in fluorescence intensity at 1/4X MIC measured after 5 mins by SYTOX Green dye based fluorescence analysis
Candida parapsilosis [4] = assay: Antifungal activity against azole-resistant Candida parapsilosis Cas08-0490 assessed as inhibition of fungal growth incubated for 48 hrs by two-fold dilution method; assay type: functional; conditions: Lodderomyces parapsilosis
Candida albicans [5] = assay: Antifungal activity against azole-resistant Candida albicans 64124 assessed as inhibition of fungal growth incubated for 48 hrs by two-fold dilution method; assay type: functional
Cryptococcus neoformans [6] = assay: Antifungal activity against Cryptococcus neoformans H99 assessed as inhibition of fungal growth incubated for 48 hrs by two-fold dilution method; assay type: functional
[7] = Cytotoxicity against human HeLa cells assessed as reduction in cell viability incubated for 24 hrs by MTT assay; assay type: toxicity, cell-based
Cell membrane [8] = assay: Induction of membrane permeabilization in Candida albicans MYA2876 assessed as pore formation by measuring increase in fluorescence intensity at 1/4X MIC measured after 5 mins by SYTOX Green dye based fluorescence analysis
Cryptococcus neoformans [9] = assay: Antifungal activity against Cryptococcus neoformans VR-54 assessed as inhibition of fungal growth incubated for 48 hrs by two-fold dilution assay; assay type: functional
Diutina rugosa [10] = assay: Antifungal activity against Candida rugosa 95-967 assessed as inhibition of fungal growth incubated for 48 hrs by two-fold dilution assay; assay type: functional
Cell membrane [11] = assay: Induction of membrane permeabilization in azole-resistant Candida parapsilosis Cas08-0490 assessed as pore formation by measuring fluorescence intensity at 256 ug/ml measured after 25 mins by SYTOX Green dye based fluorescence analysis; assay type: subcellular; conditions: dose 256.0 µg/ml
Candida albicans [12] = assay: Antifungal activity against Candida albicans MYA2876 assessed as inhibition of fungal growth incubated for 48 hrs by two-fold dilution method; assay type: functional
Escherichia coli = assay: Antibacterial activity against Escherichia coli ATCC 25922 assessed as inhibition of bacterial growth incubated for 18 hrs by two-fold dilution method; assay type: functional
Diutina rugosa [13] = assay: Antifungal activity against Candida rugosa 95-967 assessed as fractional inhibitory concentration index incubated for 48 hrs in presence of kanamycin by microdilution checkerboard assay; assay type: functional
Candida albicans [14] = assay: Antifungal activity against Candida albicans MYA2876 assessed as fractional inhibitory concentration index incubated for 48 hrs in presence of kanamycin by microdilution checkerboard assay; assay type: functional
Cryptococcus neoformans [15] = assay: Antifungal activity against Cryptococcus neoformans VR-54 assessed as fractional inhibitory concentration index incubated for 48 hrs in presence of kanamycin by microdilution checkerboard assay; assay type: functional
Candida parapsilosis [16] = assay: Antifungal activity against azole-resistant Candida parapsilosis Cas08-0490 assessed as fractional inhibitory concentration index incubated for 48 hrs in presence of kanamycin by microdilution checkerboard assay; assay type: functional
Candida tropicalis [17] = assay: Antifungal activity against Candida tropicalis 95-41 assessed as fractional inhibitory concentration index incubated for 48 hrs in presence of kanamycin by microdilution checkerboard assay; assay type: functional
Candida albicans [18] = assay: Antifungal activity against azole-resistant Candida albicans 64124 assessed as fractional inhibitory concentration index incubated for 48 hrs in presence of kanamycin by microdilution checkerboard assay; assay type: functional
Cryptococcus neoformans [19] = assay: Antifungal activity against Cryptococcus neoformans H99 assessed as fractional inhibitory concentration index incubated for 48 hrs in presence of kanamycin by microdilution checkerboard assay; assay type: functional

| SMILES | MIC (Candida tropicalis [1]) | MIC (Staphylococcus aureus) | MIC (Candida parapsilosis [4]) | MIC (Candida albicans [5]) | MIC (Cryptococcus neoformans [6]) | IC50 at 24 h [7] | MIC (Cryptococcus neoformans [9]) | MIC (Diutina rugosa [10]) | MIC (Candida albicans [12]) | MIC (Escherichia coli) | further results |
| --- | --- | --- | --- | --- | --- | --- | --- | --- | --- | --- | --- |
| Cl.Cl.Cl.Cl.NC[C@H]1O[C@H](O[C@H]2[C@H](O)[C@@H](O[C@H]3O[C@H](Cn4cc(COC(Cn5cncn5)c5ccc(Cl)cc5Cl)nn4)[C@@H](O)[C@H](N)[C@H]3O)[C@H](N)C[C@@H]2N)[C@H](O)[C@@H](O)[C@@H]1O (stereo partly drawn) | 32 µg/mL | 128 µg/mL | ≥ 256 µg/mL | 16 µg/mL | 16 µg/mL | > 100 µg/mL | 32 µg/mL | ≥ 256 µg/mL | 16 µg/mL | ≥ 256 µg/mL | Activity (Cell membrane [2]): inactive; Activity (Cell membrane [3]): Active; Activity (Cell membrane [8]): Active; Activity (Cell membrane [11]): inactive |
| Cl.Cl.Cl.Cl.NC[C@H]1O[C@H](O[C@H]2[C@H](O)[C@@H](O[C@H]3O[C@H](Cn4cc(COC(Cn5cncn5)c5ccc(F)cc5F)nn4)[C@@H](O)[C@H](N)[C@H]3O)[C@H](N)C[C@@H]2N)[C@H](O)[C@@H](O)[C@@H]1O (stereo partly drawn) | ≥ 256 µg/mL | ≥ 256 µg/mL | ≥ 256 µg/mL | ≥ 256 µg/mL | ≥ 256 µg/mL | > 100 µg/mL | ≥ 256 µg/mL | ≥ 256 µg/mL | ≥ 256 µg/mL | ≥ 256 µg/mL |  |
| Cl.Cl.Cl.Cl.NC[C@H]1O[C@H](O[C@H]2[C@H](O)[C@@H](O[C@H]3O[C@H](Cn4cc(CNC(=O)c5ccc(Cl)cc5)nn4)[C@@H](O)[C@H](N)[C@H]3O)[C@H](N)C[C@@H]2N)[C@H](O)[C@@H](O)[C@@H]1O | ≥ 256 µg/mL | 64 µg/mL | ≥ 256 µg/mL | ≥ 256 µg/mL | 128 µg/mL | > 100 µg/mL | ≥ 256 µg/mL | ≥ 256 µg/mL | ≥ 256 µg/mL | 128 µg/mL |  |
| NC[C@H]1O[C@H](O[C@H]2[C@H](O)[C@@H](O[C@H]3O[C@H](CO)[C@@H](O)[C@H](N)[C@H]3O)[C@H](N)C[C@@H]2N)[C@H](O)[C@@H](O)[C@@H]1O [KANAMYCIN] | ≥ 256 µg/mL | 1 µg/mL (≈ 2.06 µM) | ≥ 256 µg/mL | ≥ 256 µg/mL | 128 µg/mL (≈ 264 µM) |  | ≥ 256 µg/mL | ≥ 256 µg/mL | ≥ 256 µg/mL | 4 µg/mL (≈ 8.26 µM) |  |
| OC(Cn1cncn1)c1ccc(Cl)cc1Cl (stereo not drawn) | 32 µg/mL (≈ 124 µM) |  | 64 µg/mL (≈ 248 µM) | 128 µg/mL (≈ 496 µM) | 64 µg/mL (≈ 248 µM) |  | 32 µg/mL (≈ 124 µM) | 64 µg/mL (≈ 248 µM) | 64 µg/mL (≈ 248 µM) |  | fractional inhibitory concentration index (FICI) (Diutina rugosa [13]): 2.25; fractional inhibitory concentration index (FICI) (Candida albicans [14]): 1; fractional inhibitory concentration index (FICI) (Cryptococcus neoformans [15]): 1; fractional inhibitory concentration index (FICI) (Candida parapsilosis [16]): 2; fractional inhibitory concentration index (FICI) (Candida tropicalis [17]): 1.5; fractional inhibitory concentration index (FICI) (Candida albicans [18]): 1; fractional inhibitory concentration index (FICI) (Cryptococcus neoformans [19]): 1 |
| Cl.Cl.Cl.Cl.NC[C@H]1O[C@H](O[C@H]2[C@H](O)[C@@H](O[C@H]3O[C@H](Cn4cc(COC(Cn5ccnc5)c5ccc(F)cc5F)nn4)[C@@H](O)[C@H](N)[C@H]3O)[C@H](N)C[C@@H]2N)[C@H](O)[C@@H](O)[C@@H]1O (stereo partly drawn) | 8 µg/mL | 64 µg/mL | ≥ 256 µg/mL | 128 µg/mL | 64 µg/mL | > 100 µg/mL | 128 µg/mL | ≥ 256 µg/mL | 128 µg/mL | 64 µg/mL |  |
| Cl.Cl.Cl.Cl.NC[C@H]1O[C@H](O[C@H]2[C@H](O)[C@@H](O[C@H]3O[C@H](Cn4cc(CNC(=O)c5ccc(Cl)cc5Cl)nn4)[C@@H](O)[C@H](N)[C@H]3O)[C@H](N)C[C@@H]2N)[C@H](O)[C@@H](O)[C@@H]1O | ≥ 256 µg/mL | 128 µg/mL | ≥ 256 µg/mL | ≥ 256 µg/mL | ≥ 256 µg/mL | > 100 µg/mL | ≥ 256 µg/mL | ≥ 256 µg/mL | ≥ 256 µg/mL | 128 µg/mL |  |
| OC(Cn1cncn1)(Cn1cncn1)c1ccc(F)cc1F [FLUCONAZOLE] | 2 µg/mL (≈ 6.53 µM) |  | 16 µg/mL (≈ 52.2 µM) | ≥ 256 µg/mL | 1 µg/mL (≈ 3.27 µM) |  | 1 µg/mL (≈ 3.27 µM) | 8 µg/mL (≈ 26.1 µM) | 128 µg/mL (≈ 418 µM) |  |  |
| Cl.Cl.Cl.Cl.NC[C@H]1O[C@H](O[C@H]2[C@H](O)[C@@H](O[C@H]3O[C@H](Cn4cc(COC(Cn5ccnc5)c5ccc(Cl)cc5Cl)nn4)[C@@H](O)[C@H](N)[C@H]3O)[C@H](N)C[C@@H]2N)[C@H](O)[C@@H](O)[C@@H]1O (stereo partly drawn) | 64 µg/mL | 128 µg/mL | ≥ 256 µg/mL | 32 µg/mL | 64 µg/mL | > 100 µg/mL | 64 µg/mL | ≥ 256 µg/mL | 128 µg/mL | ≥ 256 µg/mL | Activity (Cell membrane [2]): inactive; Activity (Cell membrane [3]): Active; Activity (Cell membrane [8]): Active; Activity (Cell membrane [11]): inactive |
| Cl.Cl.Cl.Cl.NC[C@H]1O[C@H](O[C@H]2[C@H](O)[C@@H](O[C@H]3O[C@H](Cn4cc(CNC(=O)c5ccccc5Cl)nn4)[C@@H](O)[C@H](N)[C@H]3O)[C@H](N)C[C@@H]2N)[C@H](O)[C@@H](O)[C@@H]1O | ≥ 256 µg/mL | ≥ 256 µg/mL | ≥ 256 µg/mL | ≥ 256 µg/mL | 64 µg/mL | > 100 µg/mL | ≥ 256 µg/mL | ≥ 256 µg/mL | ≥ 256 µg/mL | 128 µg/mL |  |
